Measurements as given in patent US9179678B2, “Substituted [1,2,4]triazoles and substituted tetrazoles as herbicides” (SYNGENTA LIMITED, priority 2012, dated 2015).

How the values were obtained:
Format in all cases: in vivo
[1] = system: Alopecurus myosuroides (ALOMY); test: Post-emergence glasshouse herbicide test; settings: POST Application, 1000 g/h, after 13 days
Method in brief: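 Alopecurus myosuroides seeds were sown in pots of standard soil and grown for 8 days in a glasshouse at 24/16° C. day/night, 14 hours light and 65% humidity. The plants were then sprayed post-emergence with an aqueous solution made from the active ingredient in acetone/water (50:50) containing 0.5% Tween 20. Percentage plant damage was scored 13 days later.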

[2] = system: Amaranthus retoflexus (AMARE); test: Post-emergence glasshouse herbicide test; settings: POST Application, 1000 g/h, after 13 days
[3] = system: Echinochloa crus-galli (ECHCG); test: Post-emergence glasshouse herbicide test; settings: POST Application, 1000 g/h, after 13 days
[4] = system: Ipomoea hederacea (IPOHE); test: Post-emergence glasshouse herbicide test; settings: POST Application, 1000 g/h, after 13 days
Solanum nigrum (SOLNI) [5] = test: Post-emergence glasshouse herbicide test; settings: POST Application, 1000 g/h, after 13 days
Method in brief: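 Solanum nigrum seeds were sown in pots of standard soil and grown for 8 days in a glasshouse at 24/16° C. day/night, 14 hours light and 65% humidity. Plants were then sprayed post-emergence with the active ingredient formulated in acetone/water (50:50) containing 0.5% Tween 20. They were grown on under the same conditions with twice-daily watering, and percentage plant damage was scored after 13 days.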

Setaria faberi (SETFA) [6] = test: Post-emergence glasshouse herbicide test; settings: POST Application, 1000 g/h, after 13 days
Method in brief: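 Setaria faberi seeds were sown in standard soil in pots and grown for 8 days in a glasshouse at 24/16° C. day/night, 14 hours light and 65% humidity. Plants were then sprayed post-emergence with the active ingredient in acetone/water (50:50) containing 0.5% Tween 20, regrown under the same conditions with twice-daily watering, and scored for percentage damage after 13 days.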

[7] = system: Alopecurus myosuroides (ALOMY); test: Pre-emergence glasshouse herbicide test; settings: PRE Application, 1000 g/h, after 13 days
Method in brief: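 Alopecurus myosuroides seeds were sown in standard soil in pots and kept one day in a glasshouse at 24/16° C. day/night, 14 hours light and 65% humidity. The soil was then sprayed pre-emergence with the active ingredient in acetone/water (50:50) containing 0.5% Tween 20. Plants grew on, watered twice daily, and percentage damage was scored 13 days later.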

[8] = system: Amaranthus retoflexus (AMARE); test: Pre-emergence glasshouse herbicide test; settings: PRE Application, 1000 g/h, after 13 days
[9] = system: Echinochloa crus-galli (ECHCG); test: Pre-emergence glasshouse herbicide test; settings: PRE Application, 1000 g/h, after 13 days
[10] = system: Ipomoea hederacea (IPOHE); test: Pre-emergence glasshouse herbicide test; settings: PRE Application, 1000 g/h, after 13 days
Setaria faberi (SETFA) [11] = test: Pre-emergence glasshouse herbicide test; settings: PRE Application, 1000 g/h, after 13 days
Solanum nigrum (SOLNI) [12] = test: Pre-emergence glasshouse herbicide test; settings: PRE Application, 1000 g/h, after 13 days

Cn1nnnc1NC(=O)c1nc2ccccc2n(-c2cccc(Br)c2)c1=O [Compound 5.024]
percentage damage caused to the plant, ALOMY [1]: 5 (5=80-100%) | percentage damage caused to the plant, AMARE [2]: 5 (5=80-100%) | percentage damage caused to the plant, ECHCG [3]: 5 (5=80-100%) | percentage damage caused to the plant, IPOHE [4]: 4 (4=60-79%) | percentage damage caused to the plant, SOLNI (Solanum nigrum (SOLNI) [5]): 5 (5=80-100%) | percentage damage caused to the plant, SETFA (Setaria faberi (SETFA) [6]): 5 (5=80-100%) | percentage damage caused to the plant, ALOMY [7]: 5 (5=80-100%) | percentage damage caused to the plant, AMARE [8]: 5 (5=80-100%) | percentage damage caused to the plant, ECHCG [9]: 5 (5=80-100%) | percentage damage caused to the plant, IPOHE [10]: 5 (5=80-100%) | percentage damage caused to the plant, SETFA (Setaria faberi (SETFA) [11]): 5 (5=80-100%) | percentage damage caused to the plant, SOLNI (Solanum nigrum (SOLNI) [12]): 5 (5=80-100%)

Cn1nnnc1NC(=O)c1nc2ccccc2n(-c2cccc([N+](=O)[O-])c2)c1=O [Compound 5.025]
percentage damage caused to the plant, ALOMY [1]: 5 (5=80-100%) | percentage damage caused to the plant, AMARE [2]: 5 (5=80-100%) | percentage damage caused to the plant, ECHCG [3]: 5 (5=80-100%) | percentage damage caused to the plant, IPOHE [4]: 4 (4=60-79%) | percentage damage caused to the plant, SOLNI (Solanum nigrum (SOLNI) [5]): 5 (5=80-100%) | percentage damage caused to the plant, SETFA (Setaria faberi (SETFA) [6]): 5 (5=80-100%) | percentage damage caused to the plant, ALOMY [7]: 2 (2=20-39%) | percentage damage caused to the plant, AMARE [8]: 5 (5=80-100%) | percentage damage caused to the plant, ECHCG [9]: 3 (3=40-59%) | percentage damage caused to the plant, IPOHE [10]: 4 (4=60-79%) | percentage damage caused to the plant, SETFA (Setaria faberi (SETFA) [11]): 2 (2=20-39%) | percentage damage caused to the plant, SOLNI (Solanum nigrum (SOLNI) [12]): 5 (5=80-100%)

Cn1nnnc1NC(=O)c1nc2ccccc2n(-c2cccc(C(F)(F)F)c2)c1=O [Compound 5.026]
percentage damage caused to the plant, ALOMY [1]: 5 (5=80-100%) | percentage damage caused to the plant, AMARE [2]: 5 (5=80-100%) | percentage damage caused to the plant, ECHCG [3]: 5 (5=80-100%) | percentage damage caused to the plant, IPOHE [4]: 5 (5=80-100%) | percentage damage caused to the plant, SOLNI (Solanum nigrum (SOLNI) [5]): 5 (5=80-100%) | percentage damage caused to the plant, SETFA (Setaria faberi (SETFA) [6]): 5 (5=80-100%) | percentage damage caused to the plant, ALOMY [7]: 5 (5=80-100%) | percentage damage caused to the plant, AMARE [8]: 5 (5=80-100%) | percentage damage caused to the plant, ECHCG [9]: 5 (5=80-100%) | percentage damage caused to the plant, IPOHE [10]: 5 (5=80-100%) | percentage damage caused to the plant, SETFA (Setaria faberi (SETFA) [11]): 5 (5=80-100%) | percentage damage caused to the plant, SOLNI (Solanum nigrum (SOLNI) [12]): 5 (5=80-100%)

C=Cc1cccc(-n2c(=O)c(C(=O)Nc3nnnn3C)nc3ccccc32)c1 [Compound 5.027]
percentage damage caused to the plant, ALOMY [1]: 5 (5=80-100%) | percentage damage caused to the plant, AMARE [2]: 5 (5=80-100%) | percentage damage caused to the plant, ECHCG [3]: 5 (5=80-100%) | percentage damage caused to the plant, IPOHE [4]: 5 (5=80-100%) | percentage damage caused to the plant, SOLNI (Solanum nigrum (SOLNI) [5]): 5 (5=80-100%) | percentage damage caused to the plant, SETFA (Setaria faberi (SETFA) [6]): 5 (5=80-100%) | percentage damage caused to the plant, ALOMY [7]: 5 (5=80-100%) | percentage damage caused to the plant, AMARE [8]: 5 (5=80-100%) | percentage damage caused to the plant, ECHCG [9]: 5 (5=80-100%) | percentage damage caused to the plant, IPOHE [10]: 5 (5=80-100%) | percentage damage caused to the plant, SETFA (Setaria faberi (SETFA) [11]): 5 (5=80-100%) | percentage damage caused to the plant, SOLNI (Solanum nigrum (SOLNI) [12]): 5 (5=80-100%)

Cn1nnnc1NC(=O)c1nc2ccccc2n(-c2ccc(F)cc2)c1=O [Compound 5.029]
percentage damage caused to the plant, ALOMY [1]: 4 (4=60-79%) | percentage damage caused to the plant, AMARE [2]: 5 (5=80-100%) | percentage damage caused to the plant, ECHCG [3]: 5 (5=80-100%) | percentage damage caused to the plant, IPOHE [4]: 5 (5=80-100%) | percentage damage caused to the plant, SOLNI (Solanum nigrum (SOLNI) [5]): 5 (5=80-100%) | percentage damage caused to the plant, SETFA (Setaria faberi (SETFA) [6]): 5 (5=80-100%) | percentage damage caused to the plant, ALOMY [7]: 5 (5=80-100%) | percentage damage caused to the plant, AMARE [8]: 5 (5=80-100%) | percentage damage caused to the plant, ECHCG [9]: 5 (5=80-100%) | percentage damage caused to the plant, IPOHE [10]: 5 (5=80-100%) | percentage damage caused to the plant, SETFA (Setaria faberi (SETFA) [11]): 5 (5=80-100%) | percentage damage caused to the plant, SOLNI (Solanum nigrum (SOLNI) [12]): 5 (5=80-100%)

Cn1nnnc1NC(=O)c1nc2ccccc2n(-c2ccc(OC(F)(F)F)cc2)c1=O [Compound 5.030]
percentage damage caused to the plant, ALOMY [1]: 5 (5=80-100%) | percentage damage caused to the plant, AMARE [2]: 5 (5=80-100%) | percentage damage caused to the plant, ECHCG [3]: 5 (5=80-100%) | percentage damage caused to the plant, IPOHE [4]: 5 (5=80-100%) | percentage damage caused to the plant, SOLNI (Solanum nigrum (SOLNI) [5]): 5 (5=80-100%) | percentage damage caused to the plant, SETFA (Setaria faberi (SETFA) [6]): 5 (5=80-100%) | percentage damage caused to the plant, ALOMY [7]: 5 (5=80-100%) | percentage damage caused to the plant, AMARE [8]: 5 (5=80-100%) | percentage damage caused to the plant, ECHCG [9]: 5 (5=80-100%) | percentage damage caused to the plant, IPOHE [10]: 5 (5=80-100%) | percentage damage caused to the plant, SETFA (Setaria faberi (SETFA) [11]): 5 (5=80-100%) | percentage damage caused to the plant, SOLNI (Solanum nigrum (SOLNI) [12]): 5 (5=80-100%)

Cn1nnnc1NC(=O)c1nc2ccccc2n(-c2ccc3ccccc3c2)c1=O [Compound 5.031]
percentage damage caused to the plant, ALOMY [1]: 1 (1=0-19%) | percentage damage caused to the plant, AMARE [2]: 5 (5=80-100%) | percentage damage caused to the plant, ECHCG [3]: 1 (1=0-19%) | percentage damage caused to the plant, IPOHE [4]: 3 (3=40-59%) | percentage damage caused to the plant, SOLNI (Solanum nigrum (SOLNI) [5]): 5 (5=80-100%) | percentage damage caused to the plant, SETFA (Setaria faberi (SETFA) [6]): 1 (1=0-19%) | percentage damage caused to the plant, ALOMY [7]: 1 (1=0-19%) | percentage damage caused to the plant, AMARE [8]: 5 (5=80-100%) | percentage damage caused to the plant, ECHCG [9]: 1 (1=0-19%) | percentage damage caused to the plant, IPOHE [10]: 1 (1=0-19%) | percentage damage caused to the plant, SETFA (Setaria faberi (SETFA) [11]): 1 (1=0-19%) | percentage damage caused to the plant, SOLNI (Solanum nigrum (SOLNI) [12]): 5 (5=80-100%)

Cn1nnnc1NC(=O)c1nc2ccccc2n(-c2ccc(Br)cc2)c1=O [Compound 5.032]
percentage damage caused to the plant, ALOMY [1]: 2 (2=20-39%) | percentage damage caused to the plant, AMARE [2]: 5 (5=80-100%) | percentage damage caused to the plant, ECHCG [3]: 3 (3=40-59%) | percentage damage caused to the plant, IPOHE [4]: 5 (5=80-100%) | percentage damage caused to the plant, SOLNI (Solanum nigrum (SOLNI) [5]): 5 (5=80-100%) | percentage damage caused to the plant, SETFA (Setaria faberi (SETFA) [6]): 5 (5=80-100%) | percentage damage caused to the plant, ALOMY [7]: 4 (4=60-79%) | percentage damage caused to the plant, AMARE [8]: 5 (5=80-100%) | percentage damage caused to the plant, ECHCG [9]: 4 (4=60-79%) | percentage damage caused to the plant, IPOHE [10]: 5 (5=80-100%) | percentage damage caused to the plant, SETFA (Setaria faberi (SETFA) [11]): 5 (5=80-100%) | percentage damage caused to the plant, SOLNI (Solanum nigrum (SOLNI) [12]): 5 (5=80-100%)

COc1ccc(-n2c(=O)c(C(=O)Nc3nnnn3C)nc3ccccc32)cc1F [Compound 5.033]
percentage damage caused to the plant, ALOMY [1]: 1 (1=0-19%) | percentage damage caused to the plant, AMARE [2]: 5 (5=80-100%) | percentage damage caused to the plant, ECHCG [3]: 5 (5=80-100%) | percentage damage caused to the plant, IPOHE [4]: 5 (5=80-100%) | percentage damage caused to the plant, SOLNI (Solanum nigrum (SOLNI) [5]): 5 (5=80-100%) | percentage damage caused to the plant, SETFA (Setaria faberi (SETFA) [6]): 4 (4=60-79%) | percentage damage caused to the plant, ALOMY [7]: 2 (2=20-39%) | percentage damage caused to the plant, AMARE [8]: 5 (5=80-100%) | percentage damage caused to the plant, ECHCG [9]: 5 (5=80-100%) | percentage damage caused to the plant, IPOHE [10]: 5 (5=80-100%) | percentage damage caused to the plant, SETFA (Setaria faberi (SETFA) [11]): 1 (1=0-19%) | percentage damage caused to the plant, SOLNI (Solanum nigrum (SOLNI) [12]): 5 (5=80-100%)
